US9402398B2, “Herbicidal compounds” (SYNGENTA PARTICIPATIONS AG, priority 2012, dated 2016)

Assays:
Format in all cases: in vivo
[1] = tested on: Alopecurus myosuroides (ALOMY); assay: Herbicidal glasshouse test, post-emergence; settings: post-emergence (sprayed after 8 days cultivation), 1000 g/h, evaluated after 13 days
Experimental: (§1) Seeds of a variety of test species are sown in standard soil in pots (Alopecurus myosuroides (ALOMY), Setaria faberi (SETFA), Echinochloa crus-galli (ECHCG), Solanum nigrum (SOLNI), Amaranthus retoflexus (AMARE), Ipomoea hederacea (IPOHE)). After cultivation for one day (pre-emergence) or after 8 days cultivation (post-emergence) under controlled conditions in a glasshouse (at 24/16° C., day/night; 14 hours light; 65% humidity), the plants are sprayed with an aqueous spray solution derived from the formulation of the technical active ingredient in acetone/water (50:50) solution containing 0.5% Tween 20 (polyoxyethelyene sorbitan monolaurate, CAS RN 9005-64-5). Compounds are applied at 1000 g/h. The test plants are then grown in a glasshouse under controlled conditions in a glasshouse (at 24/16° C., day/night; 14 hours light; 65% humidity) and watered twice daily. After 13 days for pre and post-emergence, the test is evaluated for the percentage damage caused to the plant. The biological activities are shown in the following table on a five point scale (5=80-100%; 4=60-79%; 3=40-59%; 2=20-39%; 1=0-19%).

[2] = tested on: Amaranthus retoflexus (AMARE); assay: Herbicidal glasshouse test, post-emergence; settings: post-emergence (sprayed after 8 days cultivation), 1000 g/h, evaluated after 13 days
Experimental: as §1

[3] = tested on: Echinochloa crus-galli (ECHCG); assay: Herbicidal glasshouse test, post-emergence; settings: post-emergence (sprayed after 8 days cultivation), 1000 g/h, evaluated after 13 days
Experimental: as §1

[4] = tested on: Ipomoea hederacea (IPOHE); assay: Herbicidal glasshouse test, post-emergence; settings: post-emergence (sprayed after 8 days cultivation), 1000 g/h, evaluated after 13 days
Experimental: as §1

Setaria faberi (SETFA) [5] = assay: Herbicidal glasshouse test, post-emergence; settings: post-emergence (sprayed after 8 days cultivation), 1000 g/h, evaluated after 13 days
Experimental: as §1

Solanum nigrum (SOLNI) [6] = assay: Herbicidal glasshouse test, post-emergence; settings: post-emergence (sprayed after 8 days cultivation), 1000 g/h, evaluated after 13 days
Experimental: as §1

[7] = tested on: Alopecurus myosuroides (ALOMY); assay: Herbicidal glasshouse test, pre-emergence; settings: pre-emergence (sprayed after cultivation for one day), 1000 g/h, evaluated after 13 days
Experimental: as §1

[8] = tested on: Amaranthus retoflexus (AMARE); assay: Herbicidal glasshouse test, pre-emergence; settings: pre-emergence (sprayed after cultivation for one day), 1000 g/h, evaluated after 13 days
Experimental: as §1

[9] = tested on: Echinochloa crus-galli (ECHCG); assay: Herbicidal glasshouse test, pre-emergence; settings: pre-emergence (sprayed after cultivation for one day), 1000 g/h, evaluated after 13 days
Experimental: as §1

[10] = tested on: Ipomoea hederacea (IPOHE); assay: Herbicidal glasshouse test, pre-emergence; settings: pre-emergence (sprayed after cultivation for one day), 1000 g/h, evaluated after 13 days
Experimental: as §1

Setaria faberi (SETFA) [11] = assay: Herbicidal glasshouse test, pre-emergence; settings: pre-emergence (sprayed after cultivation for one day), 1000 g/h, evaluated after 13 days
Experimental: as §1

Solanum nigrum (SOLNI) [12] = assay: Herbicidal glasshouse test, pre-emergence; settings: pre-emergence (sprayed after cultivation for one day), 1000 g/h, evaluated after 13 days
Experimental: as §1

Cc1cc(C(=O)Nc2nnnn2C)c(=O)n(-c2ccc(F)cc2Br)n1 [Compound 1.020]
5 (5=80-100%): percentage damage caused to the plant, five point scale, POST Application ALOMY [1] | percentage damage caused to the plant, five point scale, POST Application AMARE [2] | percentage damage caused to the plant, five point scale, POST Application ECHCG [3] | percentage damage caused to the plant, five point scale, POST Application IPOHE [4] | percentage damage caused to the plant, five point scale, POST Application SETFA (Setaria faberi (SETFA) [5]) | percentage damage caused to the plant, five point scale, POST Application SOLNI (Solanum nigrum (SOLNI) [6]) | percentage damage caused to the plant, five point scale, PRE Application ALOMY [7] | percentage damage caused to the plant, five point scale, PRE Application AMARE [8] | percentage damage caused to the plant, five point scale, PRE Application ECHCG [9] | percentage damage caused to the plant, five point scale, PRE Application IPOHE [10] | percentage damage caused to the plant, five point scale, PRE Application SETFA (Setaria faberi (SETFA) [11]) | percentage damage caused to the plant, five point scale, PRE Application SOLNI (Solanum nigrum (SOLNI) [12])
